# From patent publication US10309967B2, “Methods of diagnosing bipolar disorders and screening for therapeutic compounds” (National University Corporation Chiba University, priority 2015, dated 2019)
# Entries after “also recorded” stand apart in the source; their conditions may differ.
# How the values were obtained:
# serum samples from rats = assay: Metabolomics of serum samples from rats chronically treated with Li or VPA; type: in vivo, rat; conditions: chronic (4-weeks) treatment; for 2,3-Diphosphoglyceric acid Mean / 2-Hydroxyglutaric acid Mean / 2-Oxoglutaric acid Mean / 2-Oxoisovaleric acid Mean / 2-Phosphoglyceric acid Mean / 3-Phosphoglyceric acid Mean / ADP-ribose Mean / AMP Mean / ATP Mean / Ala Mean / Arg Mean / Argininosuccinic acid Mean / Asn Mean / Asp Mean / Betaine Mean / Carnitine Mean / Carnosine Mean / Choline Mean / Citric acid Mean / Citrulline Mean / Creatine Mean / Creatinine Mean / Cystathionine Mean / Fructose 1,6-diphosphate Mean / Fructose 6-phosphate Mean / Fumaric acid Mean / GDP Mean / GMP Mean / GTP Mean / Gln Mean / Glu Mean / Glucose 6-phosphate Mean / Glutathione (GSSG) Mean / Gly Mean / Glycerol 3-phosphate Mean / Glycolic acid Mean / His Mean / Hydroxyproline Mean / IMP Mean / Ile Mean / Isocitric acid Mean / Lactic acid Mean / Leu Mean / Lys Mean / Malic acid Mean / Met Mean / Mevalonic acid Mean / N,N-Dimethylglycine Mean / N-Carbamoylaspartic acid Mean / NAD^+ Mean / Ornithine Mean / Phe Mean / Phosphocreatine Mean / Pro Mean / Putrescine Mean / Pyruvic acid Mean / Ribose 1-phosphate Mean / Ribose 5-phosphate Mean / Ribulose 5-phosphate Mean / Sarcosine Mean / Ser Mean / Succinic acid Mean / Thr Mean / Trp Mean / Tyr Mean / UDP-glucose Mean / Urea Mean / Uric acid Mean / Val Mean / cAMP Mean / cGMP Mean / cis-Aconitic acid Mean / β-Ala Mean: rat serum
# Procedure: Data from human samples are presented as mean±standard deviation (SD). Statistical analysis was performed using SAS software version 9.3 (SAS Institute, Cary, N.C.). Analyses of metabolites between control and BD groups were performed using unpaired t-tests and Wilcoxon rank sum tests. A logistic regression model with a stepwise selection method was used for the multivariate analysis and multiple regression analysis (consistent with description in Allen et al., Technometrics. 1974; 16(1):125-127; and Miller et al., Chapman and Hall. 1974, which are incorporated in their entireties by reference herein). […] The Mann-Whitney U test (two-tailed) was used to evaluate changes in expression levels of the ACO and IDH genes between control and BD groups. Rat data are presented as mean±SD. To determine the effects of drug treatment, a one-way ANOVA, followed by the post hoc Dunnett's test was used. P values of less than 0.05 for two-tailed tests were considered statistically significant.
# (§1) The CSF concentrations of 116 major metabolites from several pathways were measured. […] Male Sprague-Dawley rats (Japan SLC Inc., Shizuoka, Japan) aged 6 weeks old were used in this study. All rats were housed in groups of three per cage in a room maintained at 23° C.±2° C. and 60±10% humidity with a 12/12 hour light/dark cycle (lights on at 7:00 a.m.). The rats were given free access to food and water. Animal care and use were conducted in accordance with the Institutional Guidelines for Animal Care and Use of Otsuka Pharmaceutical Co., Ltd. (Tokushima, Japan). […] The drinking water was replaced twice a week. […] All animals were decapitated on day 30 after CSF sampling, and brain regions (prefrontal cortex, and hippocampus) were dissected rapidly on ice. Metabolomic analyses of rat CSF samples were performed as described herein.
# The serum concentrations of 116 major metabolites from several pathways were measured.
# Aco1 = assay: Quantitative PCR of Aco1 mRNA in rat prefrontal cortex and hippocampus after Li or VPA; type: in vivo; conditions: normalized to Gapdh; for Aco1 gene expression: relative to control, mean ± SD; for mRNA levels of Aco1: rat prefrontal cortex and hippocampus, chronic (4-weeks) treatment, vs control
# Procedure: (§2) Real-time quantitative RT-PCR analysis was conducted using an ABI7900HT Fast Real-Time PCR System (Applied Biosystems, Foster City, Calif.) in both human and rat samples. TaqMan probes and primers for the seven genes (ACO1, ACO2, IDH1, IDH2, IDH3A, IDH3B, IDH3G) and GAPDH (an internal control) (Table 11) were TAQMAN® Gene Expression Assays products (Applied Biosystems).
# as §1
# (§3) Prefrontal cortex, and hippocampus were dissected rapidly on ice and stored in RNA later (Applied Biosystems) at 4° C. until used for RNA isolation, cDNA synthesis and polymerase chain reaction (PCR) amplification. The total RNA was extracted using the RNeasy Lipid Tissue Mini Kit (QIAGEN) following the instructions of manufacturer. RNA yield and integrity was assessed using Nanodrop (NanoDrop Technologies). Reverse transcription of total RNA was done using the […] VILO cDNA Synthesis Kit (Invitrogen). In the quantitative PCR, the cDNA was amplified using commercial TaqMan assays (Applied Biosystems) for rat Idh3A (Rn00586270_m1), Idh3B (Rn00504589_g1), Aco1 (Rn00569045_m1), Aco2 (Rn00577876_m1) and Gapdh (Rn01775763_g1) with an ABI 7500 Fast Real-Time PCR system (Applied Biosystems). (Table 17) Reactions were performed in triplicates. All reactions were normalized to Gapdh and presented as relative expression changes compared to control.
# Idh3a = assay: Quantitative PCR of Idh3a mRNA in rat prefrontal cortex and hippocampus after Li or VPA; type: in vivo; conditions: normalized to Gapdh; for Idh3a gene expression: relative to control, mean ± SD; for mRNA levels of Idh3a: rat prefrontal cortex and hippocampus, chronic (4-weeks) treatment, vs control
# Procedure: as §2, §1, §3
# Idh3b = assay: Quantitative PCR of Idh3b mRNA in rat prefrontal cortex and hippocampus after Li or VPA; type: in vivo; conditions: normalized to Gapdh; for Idh3b gene expression: relative to control, mean ± SD; for mRNA levels of Idh3b: rat prefrontal cortex and hippocampus, chronic (4-weeks) treatment, vs control
# Procedure: as §2, §1, §3
structure (smiles),measurement,setting,value
"O=C([O-])[O-].[Li+].[Li+] [Li, lithium carbonate]","2,3-Diphosphoglyceric acid Mean",serum samples from rats,2.3
same,2-Hydroxyglutaric acid Mean,serum samples from rats,2.7
same,2-Oxoglutaric acid Mean,serum samples from rats,64
same,2-Oxoisovaleric acid Mean,serum samples from rats,12
same,2-Phosphoglyceric acid Mean,serum samples from rats,0.7
same,3-Phosphoglyceric acid Mean,serum samples from rats,5.5
same,ADP-ribose Mean,serum samples from rats,0.2
same,AMP Mean,serum samples from rats,0.5
same,ATP Mean,serum samples from rats,4.3
same,Ala Mean,serum samples from rats,671
same,Arg Mean,serum samples from rats,206
same,Argininosuccinic acid Mean,serum samples from rats,0.6
same,Asn Mean,serum samples from rats,87
same,Asp Mean,serum samples from rats,13
same,Betaine Mean,serum samples from rats,259
same,Carnitine Mean,serum samples from rats,65
same,Carnosine Mean,serum samples from rats,0.2
same,Choline Mean,serum samples from rats,15
same,Citric acid Mean,serum samples from rats,212
same,Citrulline Mean,serum samples from rats,103
same,Creatine Mean,serum samples from rats,104
same,Creatinine Mean,serum samples from rats,26
same,Cystathionine Mean,serum samples from rats,1.2
same,"Fructose 1,6-diphosphate Mean",serum samples from rats,0.3
same,Fructose 6-phosphate Mean,serum samples from rats,0.10
same,Fumaric acid Mean,serum samples from rats,4.0
same,GDP Mean,serum samples from rats,0.5
same,GMP Mean,serum samples from rats,0.12
same,GTP Mean,serum samples from rats,2.0
same,Gln Mean,serum samples from rats,817
same,Glu Mean,serum samples from rats,140
same,Glucose 6-phosphate Mean,serum samples from rats,0.6
same,Glutathione (GSSG) Mean,serum samples from rats,0.5
same,Gly Mean,serum samples from rats,340
same,Glycerol 3-phosphate Mean,serum samples from rats,3.1
same,Glycolic acid Mean,serum samples from rats,9.4
same,His Mean,serum samples from rats,89
same,Hydroxyproline Mean,serum samples from rats,65
same,IMP Mean,serum samples from rats,0.14
same,Ile Mean,serum samples from rats,119
same,Isocitric acid Mean,serum samples from rats,9.5
same,Lactic acid Mean,serum samples from rats,"2,764"
same,Leu Mean,serum samples from rats,199
same,Lys Mean,serum samples from rats,468
same,Malic acid Mean,serum samples from rats,23
same,Met Mean,serum samples from rats,59
same,Mevalonic acid Mean,serum samples from rats,0.05
same,"N,N-Dimethylglycine Mean",serum samples from rats,18
same,N-Carbamoylaspartic acid Mean,serum samples from rats,0.02
same,NAD^+ Mean,serum samples from rats,1.1
same,Ornithine Mean,serum samples from rats,75
same,Phe Mean,serum samples from rats,67
same,Phosphocreatine Mean,serum samples from rats,0.7
same,Pro Mean,serum samples from rats,272
same,Putrescine Mean,serum samples from rats,0.4
same,Pyruvic acid Mean,serum samples from rats,126
same,Ribose 1-phosphate Mean,serum samples from rats,0.3
same,Ribose 5-phosphate Mean,serum samples from rats,0.04
same,Ribulose 5-phosphate Mean,serum samples from rats,0.2
same,Sarcosine Mean,serum samples from rats,7.2
same,Ser Mean,serum samples from rats,319
same,Succinic acid Mean,serum samples from rats,17
same,Thr Mean,serum samples from rats,298
same,Trp Mean,serum samples from rats,148
same,Tyr Mean,serum samples from rats,95
same,UDP-glucose Mean,serum samples from rats,0.6
same,Urea Mean,serum samples from rats,"6,360"
same,Uric acid Mean,serum samples from rats,23
same,Val Mean,serum samples from rats,283
same,cAMP Mean,serum samples from rats,0.04
same,cGMP Mean,serum samples from rats,0.02
same,cis-Aconitic acid Mean,serum samples from rats,4.3
same,β-Ala Mean,serum samples from rats,2.0
same,serum levels of 2-oxoglutaric acid,"serum samples from rats; rats, vs control",significantly increased
same,serum levels of N-acetylglutamic acid,"serum samples from rats; rats, vs control",not altered
same,serum levels of arginine,"serum samples from rats; rats, vs control",not altered
same,serum levels of pyruvic acid,"serum samples from rats; rats, vs control",not altered
same,serum levels of serine,"serum samples from rats; rats, vs control",not altered
same,serum levels of β-alanine,"serum samples from rats; rats, vs control",not altered
same,Aco1 gene expression,Aco1; rat hippocampus,1.0171 ± 0.0497
same,mRNA levels of Aco1,Aco1,did not alter; also recorded: not altered
same,Aco1 gene expression,Aco1; rat prefrontal cortex,1.0091 ± 0.1737
same,Idh3a gene expression,Idh3a; rat hippocampus,1.2250 ± 0.2326
same,mRNA levels of Idh3a,Idh3a,did not alter; also recorded: not altered
same,Idh3a gene expression,Idh3a; rat prefrontal cortex,1.3420 ± 0.5725
same,Idh3b gene expression,Idh3b; rat hippocampus,1.3074 ± 0.2494
same,mRNA levels of Idh3b,Idh3b,did not alter; also recorded: not altered
same,Idh3b gene expression,Idh3b; rat prefrontal cortex,1.3440 ± 0.4424
"CCCC(CCC)C(=O)[O-].[Na+] [VPA, valproic acid sodium salt]","2,3-Diphosphoglyceric acid Mean",serum samples from rats,2.1
same,2-Hydroxyglutaric acid Mean,serum samples from rats,1.5
same,2-Oxoglutaric acid Mean,serum samples from rats,29
same,2-Oxoisovaleric acid Mean,serum samples from rats,15
same,2-Phosphoglyceric acid Mean,serum samples from rats,0.6
same,3-Phosphoglyceric acid Mean,serum samples from rats,5.0
same,ADP-ribose Mean,serum samples from rats,0.13
same,AMP Mean,serum samples from rats,0.4
same,ATP Mean,serum samples from rats,4.2
same,Ala Mean,serum samples from rats,757
same,Arg Mean,serum samples from rats,206
same,Argininosuccinic acid Mean,serum samples from rats,0.4
same,Asn Mean,serum samples from rats,77
same,Asp Mean,serum samples from rats,12
same,Betaine Mean,serum samples from rats,287
same,Carnitine Mean,serum samples from rats,78
same,Carnosine Mean,serum samples from rats,0.2
same,Choline Mean,serum samples from rats,13
same,Citric acid Mean,serum samples from rats,151
same,Citrulline Mean,serum samples from rats,92
same,Creatine Mean,serum samples from rats,211
same,Creatinine Mean,serum samples from rats,25
same,Cystathionine Mean,serum samples from rats,1.1
same,"Fructose 1,6-diphosphate Mean",serum samples from rats,0.3
same,Fructose 6-phosphate Mean,serum samples from rats,0.09
same,Fumaric acid Mean,serum samples from rats,2.6
same,GDP Mean,serum samples from rats,0.4
same,GMP Mean,serum samples from rats,0.07
same,GTP Mean,serum samples from rats,1.9
same,Gln Mean,serum samples from rats,"1,001"
same,Glu Mean,serum samples from rats,173
same,Glucose 6-phosphate Mean,serum samples from rats,0.6
same,Glutathione (GSSG) Mean,serum samples from rats,0.4
same,Gly Mean,serum samples from rats,488
same,Glycerol 3-phosphate Mean,serum samples from rats,3.5
same,Glycolic acid Mean,serum samples from rats,11
same,His Mean,serum samples from rats,90
same,Hydroxyproline Mean,serum samples from rats,65
same,IMP Mean,serum samples from rats,0.13
same,Ile Mean,serum samples from rats,119
same,Isocitric acid Mean,serum samples from rats,8.2
same,Lactic acid Mean,serum samples from rats,"2,751"
same,Leu Mean,serum samples from rats,207
same,Lys Mean,serum samples from rats,696
same,Malic acid Mean,serum samples from rats,12
same,Met Mean,serum samples from rats,53
same,Mevalonic acid Mean,serum samples from rats,1.5E−04
same,"N,N-Dimethylglycine Mean",serum samples from rats,11
same,N-Carbamoylaspartic acid Mean,serum samples from rats,0.02
same,NAD^+ Mean,serum samples from rats,1.1
same,Ornithine Mean,serum samples from rats,76
same,Phe Mean,serum samples from rats,65
same,Phosphocreatine Mean,serum samples from rats,0.9
same,Pro Mean,serum samples from rats,220
same,Putrescine Mean,serum samples from rats,0.3
same,Pyruvic acid Mean,serum samples from rats,107
same,Ribose 1-phosphate Mean,serum samples from rats,0.4
same,Ribose 5-phosphate Mean,serum samples from rats,0.04
same,Ribulose 5-phosphate Mean,serum samples from rats,0.2
same,Sarcosine Mean,serum samples from rats,5.5
same,Ser Mean,serum samples from rats,319
same,Succinic acid Mean,serum samples from rats,10
same,Thr Mean,serum samples from rats,217
same,Trp Mean,serum samples from rats,110
same,Tyr Mean,serum samples from rats,89
same,UDP-glucose Mean,serum samples from rats,0.6
same,Urea Mean,serum samples from rats,"5,050"
same,Uric acid Mean,serum samples from rats,25
same,Val Mean,serum samples from rats,290
same,cAMP Mean,serum samples from rats,0.05
same,cGMP Mean,serum samples from rats,0.02
same,cis-Aconitic acid Mean,serum samples from rats,3.1
same,β-Ala Mean,serum samples from rats,1.9
same,serum levels of N-acetylglutamic acid,"serum samples from rats; rats, vs control",not altered
same,serum levels of arginine,"serum samples from rats; rats, vs control",not altered
same,serum levels of pyruvic acid,"serum samples from rats; rats, vs control",not altered
same,serum levels of serine,"serum samples from rats; rats, vs control",not altered
same,serum levels of β-alanine,"serum samples from rats; rats, vs control",not altered
same,Aco1 gene expression,Aco1; rat hippocampus,1.0956 ± 0.0520
same,mRNA levels of Aco1,Aco1; sodium salt,did not alter; also recorded: not altered
same,Aco1 gene expression,Aco1; rat prefrontal cortex,1.1550 ± 0.1237
same,mRNA levels of Idh3a,Idh3a; sodium salt,did not alter; also recorded: not altered
same,Idh3a gene expression,Idh3a; rat prefrontal cortex,1.2546 ± 0.3578
same,Idh3b gene expression,Idh3b; rat hippocampus,1.1512 ± 0.1377
same,mRNA levels of Idh3b,Idh3b; sodium salt,did not alter; also recorded: not altered
same,Idh3b gene expression,Idh3b; rat prefrontal cortex,1.2265 ± 0.2128
